Experimental data taken from patent publication US20090215628A1, “Benzoyl-Substituted Alanines” (BASF SE, priority 2006, published 2009).

What was measured:
Assay in all cases: greenhouse post-emergence herbicidal test
Assay type in all cases: in vivo
[1] = test system: Amaranthus retroflexus
From the text: (§1) The seeds of the test plants were sown separately for each species. For the post-emergence treatment, the test plants were first grown to a height of 3 to 15 cm, depending on the plant habit, and only then treated with the active compounds which had been suspended or emulsified in water. For this purpose, the test plants were either sown directly and grown in the same containers, or they were first grown separately as seedlings and transplanted into the test containers a few days prior to treatment. […] (active substance). Depending on the species, the plants were kept at 10-25° C. or 20-35° C. The test period extended over 2 to 4 weeks. During this time, the plants were tended, and their response to the individual treatments was evaluated. Evaluation was carried out using a scale from 0 to 100. 100 means no emergence of the plants, or complete destruction of at least the aerial parts, and 0 means no damage, or normal course of growth. The plants used in the greenhouse experiments belonged to the following species: [table]

[2] = test system: Chenopodium album
From the text: as §1

[3] = test system: Galium aparine; conditions: application rate 0.5 kg/ha
From the text: as §1

[4] = test system: Setaria viridis; conditions: application rate 1 kg/ha
From the text: The seeds of the test plants were sown separately for each species. For the post-emergence treatment, the test plants were first grown to a height of 3 to 15 cm, depending on the plant habit, and only then treated with the active compounds which had been suspended or emulsified in water. For this purpose, the test plants were either sown directly and grown in the same containers, or they were first grown separately as seedlings and transplanted into the test containers a few days prior to treatment. The rate of application for the post-emergence treatment was 1.0 kg/ha of a.s. (active substance). Depending on the species, the plants were kept at 10-25° C. or 20-35° C. The test period extended over 2 to 4 weeks. During this time, the plants were tended, and their response to the individual treatments was evaluated. Evaluation was carried out using a scale from 0 to 100. 100 means no emergence of the plants, or complete destruction of at least the aerial parts, and 0 means no damage, or normal course of growth. The plants used in the greenhouse experiments belonged to the following species: [table]

| Structure (SMILES) | post-emergence activity against Amaranthus retroflexus ([1]; application rate 0.5 kg/ha) | post-emergence activity against Chenopodium album ([2]; application rate 0.5 kg/ha) | post-emergence activity against Galium aparine [3] | post-emergence activity against Amaranthus retroflexus ([1]; application rate 1 kg/ha) | post-emergence activity against Chenopodium album ([2]; application rate 1 kg/ha) | post-emergence activity against Setaria viridis [4] |
| --- | --- | --- | --- | --- | --- | --- |
| CNC(=O)C(NC(=O)c1ccc(F)cc1C(F)(F)F)C(c1ccccc1)C(C)[N+](=O)[O-] (mixture of isomers) [Compound 5.2] | very good | very good | very good |  |  |  |
| CNC(=O)C(NC(=O)c1ccc(F)cc1C(F)(F)F)C(C[N+](=O)[O-])c1cccc(F)c1C (mixture of isomers) [Compound 5.4] |  |  |  | very good | very good |  |
| CNC(=O)[C@@H](NC(=O)c1ccc(F)cc1C(F)(F)F)[C@H](CNC(C)=O)c1ccccc1 (racemic) [Compound 4.16, N-((1RS,2RS)-3-Acetylamino-1-methylcarbamoyl-2-phenylpropyl)-4-fluoro-2-trifluoromethylbenzamide] |  |  |  | very good | very good | very good |
| CNC(=O)C(NC(=O)c1ccc(F)cc1C(F)(F)F)C(c1ccccc1C)C(C)O (racemic) [Compound 3.12] | very good | very good | very good |  |  |  |
| CNC(=O)C(NC(=O)c1ccc(F)cc1C(F)(F)F)C(CNC(=O)C(F)(F)F)c1ccccc1 (racemic) [Compound 4.21] |  |  |  | very good | very good | very good |
| CNC(=O)C(NC(=O)c1ccc(F)cc1C(F)(F)F)C(CNS(C)(=O)=O)c1ccccc1 (mixture of isomers) [Compound 4.4] |  |  |  | very good | very good | very good |
| CNC(=O)C(NC(=O)c1ccc(F)cc1C(F)(F)F)C(CNC(=O)N(C)C)c1ccccc1C (mixture of isomers) [Compound 4.33] |  |  |  | very good | very good | very good |
| CNC(=O)C(NC(=O)c1ccc(F)cc1C(F)(F)F)C(CNC(=O)N(C)C)c1ccccc1 (racemic) [Compound 4.12] |  |  |  | very good | very good | very good |
| CNC(=O)C(NC(=O)c1ccc(F)cc1C(F)(F)F)C(C[N+](=O)[O-])c1ccccc1 (racemic) [Compound 5.1, 4-Fluoro-N-(1-methylcarbamoyl-3-nitro-2-phenylpropyl)-2-trifluoromethylbenzamide] | very good | good | good |  |  |  |
| CNC(=O)C(NC(=O)c1ccc(F)cc1C(F)(F)F)C(CNC(C)=O)c1cccc(F)c1C (mixture of isomers) [Compound 4.36] |  |  |  | very good | very good | very good |
| CNC(=O)C(NC(=O)c1ccc(F)cc1C(F)(F)F)C(C[N+](=O)[O-])c1cccc(F)c1 (mixture of isomers) [Compound 5.3] |  |  |  | very good | good |  |
| CNC(=O)C(NC(=O)c1ccc(F)cc1C(F)(F)F)C(CNC(=O)C(Cl)(Cl)Cl)c1ccccc1 (racemic) [Compound 4.22] |  |  |  | very good | very good | very good |
| CNC(=O)C(NC(=O)c1ccc(F)cc1C(F)(F)F)C(CNC(C)=O)c1ccccc1C (mixture of isomers) [Compound 4.34] |  |  |  | very good | very good | very good |
